melting point | Compound
206.9 °C | NS(=O)(=O)c1ccc(-c2cc3n(c2-c2ccc(F)cc2)CCC3)cc1
199.6 °C | Cc1c(C(F)(C(F)(F)F)C(F)(F)F)c(-c2ccc(S(N)(=O)=O)cc2)c2n1CCC2
191 °C | CS(=O)(=O)c1ccc(-c2c(-c3ccc(F)cc3)cn3c2CCC3)cc1
